The values below come from patent US12570642B2, “GLP-IR modulating compounds” (Gilead Sciences, Inc., priority 2021, dated 2026).

The structures appear in SMILES notation.

In this experiment the target is GLP-1R (Homo sapiens, UniProt P43220). Put plainly: GLP-1R Activation - cAMP Assay. Type of experiment: cell-based. The following applies: cAMP increase in CHO cells stably expressing GLP-1R; each compound run on one of the two cAMP assays (Assay 1 or Assay 2, not specified). In a few lines:
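cAMP rise read by HTRF after 30 min agonist exposure (10-point titration, 37 °C) in HBSS/20 mM Hepes/0.1% BSA, following 1 h pre-incubation. Cells: stable GLP-1R CHO line, 1,000/well, seeded overnight. Sigmoidal fit of response vs log concentration gives EC50.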
Background: Changes in cAMP serve as a functional read-out for many G protein-coupled receptors.

GLP-1R, sequence (P43220 24-463): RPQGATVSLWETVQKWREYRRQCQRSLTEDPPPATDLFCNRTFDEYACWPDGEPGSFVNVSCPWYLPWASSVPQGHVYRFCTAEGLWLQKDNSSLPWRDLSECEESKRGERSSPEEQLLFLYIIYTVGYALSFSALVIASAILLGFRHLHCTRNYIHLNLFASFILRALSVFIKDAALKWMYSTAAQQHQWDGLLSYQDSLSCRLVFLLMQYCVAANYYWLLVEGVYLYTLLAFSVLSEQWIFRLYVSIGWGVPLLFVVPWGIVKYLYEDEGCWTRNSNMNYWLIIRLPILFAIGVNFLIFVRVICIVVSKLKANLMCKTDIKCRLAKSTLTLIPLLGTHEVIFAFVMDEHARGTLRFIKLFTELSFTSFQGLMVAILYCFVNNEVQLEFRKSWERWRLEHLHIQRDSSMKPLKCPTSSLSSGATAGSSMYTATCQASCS

For `CC1(C)COC[C@H]1n1c(Cc2ccc(-c3ccc(F)c(OCc4ccc(-n5ccnn5)cc4F)n3)cc2F)nc2ccc(C(=O)O)cc21` [Example 236, (S)-1-(4,4-dimethyltetrahydrofuran-3-yl)-2-(2-fluoro-4-(5-fluoro-6-((2-fluoro-4-(1H-1,2,3-triazol-1-yl)benzyl)oxy)pyridin-2-yl)benzyl)-1H-benzo[d]imidazole-6-carboxylic acid], the EC50 (in general, the concentration needed to bring the measured effect to its halfway point) was 0.203 nM. In turn, `N#Cc1ccc(COc2cccc(-c3cc(F)c(Cc4nc5ccc(C(=O)O)cc5n4[C@@H]4CO[C@H]5OCC[C@H]54)cc3F)n2)c(F)c1` [Example 19] had an EC50 of 0.6 nM. The compound `COCCn1c(Cc2cc(F)c(-c3cccc(OCc4ccc(-c5cc(C(F)(F)F)nn5C)cc4F)n3)cc2F)nc2ccc(C(=O)O)cc21` [Example 102, 2-(2,5-difluoro-4-(6-((2-fluoro-4-(1-methyl-3-(trifluoromethyl)-1H-pyrazol-5-yl)benzyl)oxy)pyridin-2-yl)benzyl)-1-(2-methoxyethyl)-1H-benzo[d]imidazole-6-carboxylic Acid] registered an EC50 of 22.8 nM. Next, `O=C(O)c1ccc2nc(Cc3cc(F)c(-c4cccc(OCc5ccc(Cl)cc5F)n4)cc3F)n(C3COC4CC3C4)c2c1` (stereo in doubt) [Example 572, (R)-1-(2-oxabicyclo[3.1.1]heptan-4-yl)-2-(4-(6-((4-chloro-2-fluorobenzyl)oxy)pyridin-2-yl)-2,5-difluorobenzyl)-1H-benzo[d]imidazole-6-carboxylic acid]: 0.322 nM; `Cc1cc(Cc2nc3c(F)cc(C(=O)O)cc3n2[C@@H]2COCC2(C)C)c(Cl)cc1-c1cccc(OCc2ccc(C#N)cc2F)n1` [Example 139, (S)-2-(2-chloro-4-(6-((4-cyano-2-fluorobenzyl)oxy)pyridin-2-yl)-5-methylbenzyl)-1-(4,4-dimethyltetrahydrofuran-3-yl)-4-fluoro-1H-benzo[d]imidazole-6-carboxylic Acid]: 0.023 nM; `COCCn1c(Cc2ccc(-c3cccc(OCc4ccc(C#N)cc4F)n3)c3c2COC3)nc2ccc(C(=O)O)cc21` [Example 97]: 21.2 nM. For the compound `CC(C)OCCn1c(Cc2cc(F)c(-c3cccc(OCc4cnc(-n5ccnn5)cc4Cl)n3)cc2F)nc2ccc(C(=O)O)cc21` [Example 561, 2-(4-(6-((4-chloro-6-(1H-1,2,3-triazol-1-yl)pyridin-3-yl)methoxy)pyridin-2-yl)-2,5-difluorobenzyl)-1-(2-isopropoxyethyl)-1H-benzo[d]imidazole-6-carboxylic acid], the 50% effective concentration (EC50) stood at 0.558 nM. Regarding `COC(=O)c1ccc2nc(Cc3cc(F)c(-c4cccc(OCc5ccc(Cl)cc5F)n4)cc3F)n([C@@H]3COCC3(C)C)c2c1` [Example 532, (S)-methyl 2-(4-(6-((4-chloro-2-fluorobenzyl)oxy)pyridin-2-yl)-2,5-difluorobenzyl)-1-(4,4-dimethyltetrahydrofuran-3-yl)-1H-benzo[d]imidazole-6-carboxylate], the EC50 was 3680 nM.

Compound `CC1(C)COC[C@H]1n1c(Cc2c(F)cc(-c3nc(OCc4ccc(C#N)cc4)c(F)cc3F)cc2F)nc2ccc(C(=O)O)cc21` [Example 151, (S)-2-(4-(6-((4-cyanobenzyl)oxy)-3,5-difluoropyridin-2-yl)-2,6-difluorobenzyl)-1-(4,4-dimethyltetrahydrofuran-3-yl)-1H-benzo[d]imidazole-6-carboxylic Acid] came in with an EC50 of 0.234 nM. For `N#Cc1ccc(COc2cccc(-c3cc(F)c(Cc4nc5ccc(C(=O)O)cc5n4C45COC(C4)C5)cc3F)n2)c(F)c1` [Example 66, 1-(2-oxabicyclo[2.1.1]hexan-4-yl)-2-(4-(6-((4-cyano-2-fluorobenzyl)oxy)pyridin-2-yl)-2,5-difluorobenzyl)-1H-benzo[d]imidazole-6-carboxylic Acid], the EC50 was 12.9 nM. For the compound `CC1(C)COC[C@H]1n1c(Cc2c(F)cc(-c3cccc(OCc4ccc(Cl)cc4F)n3)cc2F)nc2ccc(C(=O)O)cc21` [Example 302, (S)-2-(4-(6-((4-chloro-2-fluorobenzyl)oxy)pyridin-2-yl)-2,6-difluorobenzyl)-1-(4,4-dimethyltetrahydrofuran-3-yl)-1H-benzo[d]imidazole-6-carboxylic acid], the EC50 stood at 0.181 nM.

`CC1(C)COC[C@H]1n1c(Cn2cc(F)c(-c3cccc(OCc4ccc(C#N)cc4F)n3)cc2=O)nc2c(F)cc(C(=O)O)cc21` [Example 145, (S)-2-((6-((4-cyano-2-fluorobenzyl)oxy)-5′-fluoro-2′-oxo-[2,4′-bipyridin]-1′(2′H)-yl)methyl)-1-(4,4-dimethyltetrahydrofuran-3-yl)-4-fluoro-1H-benzo[d]imidazole-6-carboxylic Acid] yielded an EC50 of 0.022 nM. `COCCn1c(Cc2cc(F)c(-c3cccc(OCc4ccc5nccn5c4)n3)cc2F)nc2ccc(C(=O)O)cc21` [Example 30, 2-(2,5-difluoro-4-(6-(imidazo[1,2-a]pyridin-6-ylmethoxy)pyridin-2-yl)benzyl)-1-(2-methoxyethyl)-1H-benzo[d]imidazole-6-carboxylic Acid] came in with a half-maximal effective concentration (EC50) of 49.9 nM.

In turn, `CO[C@H](C)Cn1c(Cc2cc(F)c(-c3ccc(F)c(OCc4ccc(C#N)cc4F)n3)cc2F)nc2c(F)cc(C(=O)O)cc21` [Example 368, (R)-2-(4-(6-((4-cyano-2-fluorobenzyl)oxy)-5-fluoropyridin-2-yl)-2,5-difluorobenzyl)-4-fluoro-1-(2-methoxypropyl)-1H-benzo[d]imidazole-6-carboxylic acid] returned an EC50 of 0.562 nM. Next, `CO[C@H](C)Cn1c(Cc2cc(F)c(-c3cccc(OCc4ccc(C#N)cc4)n3)cc2F)nc2c(F)cc(C(=O)O)cc21` [Example 381, (R)-2-(4-(6-((4-cyanobenzyl)oxy)pyridin-2-yl)-2,5-difluorobenzyl)-4-fluoro-1-(2-methoxypropyl)-1H-benzo[d]imidazole-6-carboxylic acid]: 0.267 nM; `CO[C@@H]1CCOC[C@@H]1n1c(Cc2cc(F)c(-c3cccc(OCc4ccc(C#N)cc4F)n3)cc2F)nc2ccc(C(=O)O)cc21` (single isomer, unassigned) [Example 408]: 0.633 nM. Then `N#Cc1ccc(COc2cccc(-c3cc(F)c(Cc4nc5ccc(C(=O)O)cc5n4[C@@H]4COC[C@@H]4OCC(F)F)cc3F)n2)c(F)c1` (racemic) [Example 412, 2-(4-(6-((4-cyano-2-fluorobenzyl)oxy)pyridin-2-yl)-2,5-difluorobenzyl)-1-((3R,4R)-4-(2,2-difluoroethoxy)tetrahydrofuran-3-yl)-1H-benzo[d]imidazole-6-carboxylic acid], with 0.462 nM. Then `COCCn1c(Cc2c(F)cc(-c3ccc(F)c(OCc4ccc(Cl)cc4F)n3)c(F)c2F)nc2c(F)cc(C(=O)O)cc21` [Example 485, 2-(4-(6-((4-chloro-2-fluorobenzyl)oxy)-5-fluoropyridin-2-yl)-2,3,6-trifluorobenzyl)-4-fluoro-1-(2-methoxyethyl)-1H-benzo[d]imidazole-6-carboxylic acid], with 0.203 nM.

As for `COC[C@H]1COC[C@H]1n1c(Cc2cc(F)c(-c3cccc(OCc4ccc(Cl)cc4F)n3)cc2F)nc2ccc(C(=O)O)cc21` [Example 542, 2-(4-(6-((4-chloro-2-fluorobenzyl)oxy)pyridin-2-yl)-2,5-difluorobenzyl)-1-((3S,4S)-4-(methoxymethyl)tetrahydrofuran-3-yl)-1H-benzo[d]imidazole-6-carboxylic acid], the response was half-maximal at 0.033 nM (EC50). `CC1(C)COC[C@H]1n1c(Cc2cc(F)c(-c3cccc(OCc4ccc(Cl)cc4F)n3)cc2F)nc2ccc(C(=O)O)nc21` [Example 437, (S)-2-(4-(6-((4-chloro-2-fluorobenzyl)oxy)pyridin-2-yl)-2,5-difluorobenzyl)-3-(4,4-dimethyltetrahydrofuran-3-yl)-3H-imidazo[4,5-b]pyridine-5-carboxylic acid] showed an EC50 of 0.644 nM. Next, `CC1(C)COC[C@@H]1n1c(Cc2ccc(-c3cccc(OCc4ccc(C#N)cc4F)n3)cc2F)nc2ccc(C(=O)O)cc21` (single isomer, unassigned) [Example 379]: 0.574 nM; `CC1(C)COC[C@H]1n1c(Cc2cc(F)c(-c3cccc(OCc4ccc(C(F)(F)F)nc4)n3)cc2F)nc2ccc(C(=O)O)cc21` [Example 425, (S)-2-(2,5-difluoro-4-(6-((6-(trifluoromethyl)pyridin-3-yl)methoxy)pyridin-2-yl)benzyl)-1-(4,4-dimethyltetrahydrofuran-3-yl)-1H-benzo[d]imidazole-6-carboxylic acid]: 0.494 nM; `Cc1cc(Cc2nc3c(F)cc(C(=O)O)cc3n2[C@@H]2COCC2(C)C)c(F)cc1-c1ccnc(OCc2ccc(C#N)cc2F)n1` [Example 265, (S)-2-(4-(2-((4-cyano-2-fluorobenzyl)oxy)pyrimidin-4-yl)-2-fluoro-5-methylbenzyl)-1-(4,4-dimethyltetrahydrofuran-3-yl)-4-fluoro-1H-benzo[d]imidazole-6-carboxylic acid]: 0.171 nM. Next, `COCCn1c(Cc2cc(F)c(-c3cccc(OCc4cc(F)ccc4F)n3)cc2F)nc2ccc(C(=O)O)cc21` [Example 26, 2-(4-(6-((2,5-difluorobenzyl)oxy)pyridin-2-yl)-2,5-difluorobenzyl)-1-(2-methoxyethyl)-1H-benzo[d]imidazole-6-carboxylic Acid]: 18.7 nM; `N#Cc1ccc(COc2cccc(-c3cc(F)c(Cc4nc5ccc(C(=O)O)cc5n4[C@H]4COC[C@H]4C(F)F)cc3F)n2)c(F)c1` (single isomer, unassigned) [Example 234]: 0.448 nM.

Consider `C[C@@H]1COC[C@@H]1n1c(Cc2cc(F)c(-c3cccc(OCc4ccc(C#N)cc4F)n3)cc2F)nc2ccc(C(=O)O)cc21` (racemic) [Example 505, 2-(4-(6-((4-cyano-2-fluorobenzyl)oxy)pyridin-2-yl)-2,5-difluorobenzyl)-1-((3R,4S)-4-methyltetrahydrofuran-3-yl)-1H-benzo[d]imidazole-6-carboxylic acid], for which the EC50 was determined as 0.043 nM.
